Paper PMC4628873 (Bioorganic & medicinal chemistry letters, 2015)

Key:
[1] = molecular target: T1, 5-HT2A receptor (Homo sapiens, UniProt P28223); assay: FLIPR calcium mobilization functional assay, human 5-HT2A receptor; conditions: for Selectivity α1A/5-HT2A: ratio of Ke α1A / Ke 5-HT2A
[2] = molecular target: T2, α1A adrenergic receptor (Homo sapiens, UniProt P35348); assay: FLIPR calcium mobilization functional assay, α1A adrenergic receptor
T2 sequence (P35348 1-466): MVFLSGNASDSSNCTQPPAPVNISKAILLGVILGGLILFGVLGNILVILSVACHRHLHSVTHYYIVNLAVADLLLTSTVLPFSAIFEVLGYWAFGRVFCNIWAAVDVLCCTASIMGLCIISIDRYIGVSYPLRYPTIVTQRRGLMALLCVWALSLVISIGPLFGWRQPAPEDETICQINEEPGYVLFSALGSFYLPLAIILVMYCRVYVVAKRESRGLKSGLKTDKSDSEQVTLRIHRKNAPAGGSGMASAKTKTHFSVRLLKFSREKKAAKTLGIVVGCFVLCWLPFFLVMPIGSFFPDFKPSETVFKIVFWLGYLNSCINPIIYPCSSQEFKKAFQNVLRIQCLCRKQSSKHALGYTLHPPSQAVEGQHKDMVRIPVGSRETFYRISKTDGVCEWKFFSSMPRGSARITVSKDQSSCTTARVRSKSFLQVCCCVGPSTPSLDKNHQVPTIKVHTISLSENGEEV

[3] = molecular target: T1, 5-HT2A receptor; assay: PDSP screening
[4] = molecular target: 5-HT1A (Homo sapiens, UniProt P08908); assay: PDSP screening; conditions: no affinity
[5] = molecular target: 5-HT5A (Homo sapiens, UniProt P47898); assay: PDSP screening; conditions: no affinity
[6] = molecular target: α1A (Homo sapiens, UniProt P35348); assay: PDSP screening; conditions: no affinity
[7] = molecular target: α1B (Homo sapiens, UniProt P35368); assay: PDSP screening; conditions: no affinity
[8] = molecular target: α1D (Homo sapiens, UniProt P25100); assay: PDSP screening; conditions: no affinity
[9] = molecular target: β1 (Homo sapiens, UniProt P08588); assay: PDSP screening; conditions: no affinity
[10] = molecular target: β2 (Homo sapiens, UniProt P07550); assay: PDSP screening; conditions: no affinity
[11] = molecular target: β3 (Homo sapiens, UniProt P13945); assay: PDSP screening; conditions: no affinity
[12] = tested on: BZP rat brain site; assay: PDSP screening; conditions: no affinity
[13] = molecular target: D2 (Homo sapiens, UniProt P14416); assay: PDSP screening; conditions: no affinity
[14] = molecular target: D4 (Homo sapiens, UniProt P21917); assay: PDSP screening; conditions: no affinity
[15] = molecular target: D5 (Homo sapiens, UniProt P21918); assay: PDSP screening; conditions: no affinity
[16] = molecular target: DOR (Homo sapiens, UniProt P41143); assay: PDSP screening; conditions: no affinity
[17] = tested on: GABAA; assay: PDSP screening; conditions: no affinity
[18] = molecular target: H1 (Homo sapiens, UniProt P35367); assay: PDSP screening; conditions: no affinity
[19] = molecular target: H3 (Homo sapiens, UniProt Q9Y5N1); assay: PDSP screening; conditions: no affinity
[20] = molecular target: H4 (Homo sapiens, UniProt Q9H3N8); assay: PDSP screening; conditions: no affinity
[21] = molecular target: KOR (Homo sapiens, UniProt P41145); assay: PDSP screening; conditions: no affinity
[22] = molecular target: M1 (Homo sapiens, UniProt P11229); assay: PDSP screening; conditions: no affinity
[23] = molecular target: M2 (Homo sapiens, UniProt P08172); assay: PDSP screening; conditions: no affinity
[24] = molecular target: M3 (Homo sapiens, UniProt P20309); assay: PDSP screening; conditions: no affinity
[25] = molecular target: M4 (Homo sapiens, UniProt P08173); assay: PDSP screening; conditions: no affinity
[26] = molecular target: MOR (Homo sapiens, UniProt P35372); assay: PDSP screening; conditions: no affinity
[27] = molecular target: NET (Homo sapiens, UniProt P23975); assay: PDSP screening; conditions: no affinity
[28] = molecular target: SERT (Homo sapiens, UniProt P31645); assay: PDSP screening; conditions: no affinity
[29] = molecular target: PBR (Rattus norvegicus, UniProt P16257); assay: PDSP screening
[30] = molecular target: 5-HT2C (Homo sapiens, UniProt P28335); assay: PDSP screening
[31] = molecular target: 5-HT6 (Homo sapiens, UniProt P50406); assay: PDSP screening
[32] = molecular target: α2A (Homo sapiens, UniProt P08913); assay: PDSP screening
[33] = molecular target: DAT (Homo sapiens, UniProt Q01959); assay: PDSP screening
[34] = molecular target: sigma-2 (Rattus norvegicus, UniProt Q5U3Y7); assay: PDSP screening
[35] = molecular target: T2, α1A adrenergic receptor; conditions: prior SAR studies; cited from earlier work

T1 sequence (P28223 whole entry): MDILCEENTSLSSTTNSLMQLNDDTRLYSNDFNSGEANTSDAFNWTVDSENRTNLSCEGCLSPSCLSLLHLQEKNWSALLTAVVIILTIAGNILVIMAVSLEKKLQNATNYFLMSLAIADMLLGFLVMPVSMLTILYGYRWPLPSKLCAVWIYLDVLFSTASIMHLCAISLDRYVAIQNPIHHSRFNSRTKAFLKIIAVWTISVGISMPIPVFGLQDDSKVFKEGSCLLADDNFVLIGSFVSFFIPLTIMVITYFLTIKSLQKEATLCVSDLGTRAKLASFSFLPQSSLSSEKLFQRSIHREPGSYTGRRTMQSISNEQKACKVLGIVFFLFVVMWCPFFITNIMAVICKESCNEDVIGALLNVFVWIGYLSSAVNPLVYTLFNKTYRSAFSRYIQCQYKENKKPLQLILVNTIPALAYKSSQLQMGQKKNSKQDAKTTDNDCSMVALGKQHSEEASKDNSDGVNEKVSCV
Chain of sigma-2 (Q5U3Y7 whole entry): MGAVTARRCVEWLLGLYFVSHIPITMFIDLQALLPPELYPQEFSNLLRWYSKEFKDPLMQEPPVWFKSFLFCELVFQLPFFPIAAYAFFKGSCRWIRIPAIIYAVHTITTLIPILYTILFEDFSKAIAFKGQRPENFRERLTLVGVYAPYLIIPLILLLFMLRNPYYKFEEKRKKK
Chain of M4 (P08173 whole entry): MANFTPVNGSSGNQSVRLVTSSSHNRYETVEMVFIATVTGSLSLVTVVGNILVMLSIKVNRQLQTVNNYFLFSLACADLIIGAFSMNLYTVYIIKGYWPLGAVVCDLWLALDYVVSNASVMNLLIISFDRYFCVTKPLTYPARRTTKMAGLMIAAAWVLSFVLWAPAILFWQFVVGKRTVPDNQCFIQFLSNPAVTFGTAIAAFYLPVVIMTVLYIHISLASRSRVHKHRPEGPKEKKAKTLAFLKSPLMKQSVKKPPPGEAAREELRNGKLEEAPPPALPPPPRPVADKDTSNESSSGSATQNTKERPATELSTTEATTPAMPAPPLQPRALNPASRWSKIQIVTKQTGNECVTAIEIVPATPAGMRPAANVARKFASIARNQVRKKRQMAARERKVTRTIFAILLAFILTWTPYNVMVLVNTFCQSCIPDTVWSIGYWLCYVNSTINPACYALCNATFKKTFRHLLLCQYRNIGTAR
Chain of D2 (P14416 whole entry): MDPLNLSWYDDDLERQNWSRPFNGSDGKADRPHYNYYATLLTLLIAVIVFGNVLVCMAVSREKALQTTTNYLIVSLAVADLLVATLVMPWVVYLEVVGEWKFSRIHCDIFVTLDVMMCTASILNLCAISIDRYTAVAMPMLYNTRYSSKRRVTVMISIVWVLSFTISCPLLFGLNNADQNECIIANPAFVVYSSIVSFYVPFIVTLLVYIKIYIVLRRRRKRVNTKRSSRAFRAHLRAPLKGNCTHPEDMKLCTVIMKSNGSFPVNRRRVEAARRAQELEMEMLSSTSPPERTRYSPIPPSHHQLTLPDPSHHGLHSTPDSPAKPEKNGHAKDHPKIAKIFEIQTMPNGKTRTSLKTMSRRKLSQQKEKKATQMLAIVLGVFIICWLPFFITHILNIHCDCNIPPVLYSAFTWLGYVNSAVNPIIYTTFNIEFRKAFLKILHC
Chain of H3 (Q9Y5N1 whole entry): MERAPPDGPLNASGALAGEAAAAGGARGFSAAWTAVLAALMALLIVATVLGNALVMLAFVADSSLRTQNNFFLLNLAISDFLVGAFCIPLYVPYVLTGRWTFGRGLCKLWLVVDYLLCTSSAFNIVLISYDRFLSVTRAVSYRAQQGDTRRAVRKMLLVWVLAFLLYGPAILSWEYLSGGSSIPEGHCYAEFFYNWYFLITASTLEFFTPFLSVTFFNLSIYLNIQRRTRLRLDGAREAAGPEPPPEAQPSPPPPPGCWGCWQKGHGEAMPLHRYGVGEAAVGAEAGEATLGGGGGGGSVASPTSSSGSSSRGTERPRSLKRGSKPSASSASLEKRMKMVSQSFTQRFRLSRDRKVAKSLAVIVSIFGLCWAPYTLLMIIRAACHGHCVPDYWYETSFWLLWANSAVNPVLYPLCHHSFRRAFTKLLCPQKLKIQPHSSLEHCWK
Chain of SERT (P31645 whole entry): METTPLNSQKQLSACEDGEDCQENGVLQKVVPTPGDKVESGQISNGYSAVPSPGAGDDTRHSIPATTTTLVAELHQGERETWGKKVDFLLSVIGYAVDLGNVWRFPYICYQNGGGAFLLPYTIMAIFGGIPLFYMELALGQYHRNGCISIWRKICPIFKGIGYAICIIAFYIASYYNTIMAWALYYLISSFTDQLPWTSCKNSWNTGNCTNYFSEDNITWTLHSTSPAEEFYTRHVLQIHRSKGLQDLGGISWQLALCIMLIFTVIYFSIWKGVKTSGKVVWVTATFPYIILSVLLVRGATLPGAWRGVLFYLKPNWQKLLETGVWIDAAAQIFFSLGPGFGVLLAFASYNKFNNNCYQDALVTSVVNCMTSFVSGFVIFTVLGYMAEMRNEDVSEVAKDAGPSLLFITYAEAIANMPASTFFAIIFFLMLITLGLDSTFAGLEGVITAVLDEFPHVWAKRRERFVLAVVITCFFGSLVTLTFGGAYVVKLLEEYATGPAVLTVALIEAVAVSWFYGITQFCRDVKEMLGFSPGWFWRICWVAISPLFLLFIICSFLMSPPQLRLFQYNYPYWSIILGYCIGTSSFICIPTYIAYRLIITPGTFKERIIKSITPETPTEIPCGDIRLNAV
Chain of α1B (P35368 whole entry): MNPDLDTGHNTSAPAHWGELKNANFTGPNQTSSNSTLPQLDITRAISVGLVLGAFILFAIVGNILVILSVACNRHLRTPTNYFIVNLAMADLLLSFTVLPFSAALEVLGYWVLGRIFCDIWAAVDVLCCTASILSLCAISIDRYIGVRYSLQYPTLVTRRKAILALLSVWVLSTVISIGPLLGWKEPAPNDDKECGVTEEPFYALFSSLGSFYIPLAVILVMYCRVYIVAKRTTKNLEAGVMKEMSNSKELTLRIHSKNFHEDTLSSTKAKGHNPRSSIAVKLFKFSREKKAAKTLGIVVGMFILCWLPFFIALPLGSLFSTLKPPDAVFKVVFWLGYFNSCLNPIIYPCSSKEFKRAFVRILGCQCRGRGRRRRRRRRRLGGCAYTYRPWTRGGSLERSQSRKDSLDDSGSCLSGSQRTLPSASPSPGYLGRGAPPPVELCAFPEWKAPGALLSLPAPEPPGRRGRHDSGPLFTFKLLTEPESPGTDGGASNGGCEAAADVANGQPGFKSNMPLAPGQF
Chain of M2 (P08172 whole entry): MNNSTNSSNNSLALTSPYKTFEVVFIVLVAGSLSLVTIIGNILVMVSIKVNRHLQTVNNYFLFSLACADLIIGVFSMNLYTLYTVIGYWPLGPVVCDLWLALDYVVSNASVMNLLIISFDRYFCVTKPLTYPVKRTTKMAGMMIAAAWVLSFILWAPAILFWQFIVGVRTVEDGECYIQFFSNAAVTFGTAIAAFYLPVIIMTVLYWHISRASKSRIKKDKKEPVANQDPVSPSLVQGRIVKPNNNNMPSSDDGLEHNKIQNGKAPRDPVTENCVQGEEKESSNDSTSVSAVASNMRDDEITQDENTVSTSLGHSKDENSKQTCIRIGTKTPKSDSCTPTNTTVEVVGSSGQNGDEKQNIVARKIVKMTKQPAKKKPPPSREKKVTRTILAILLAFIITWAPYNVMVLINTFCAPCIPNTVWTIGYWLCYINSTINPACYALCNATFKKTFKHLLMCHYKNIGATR
Chain of H1 (P35367 whole entry): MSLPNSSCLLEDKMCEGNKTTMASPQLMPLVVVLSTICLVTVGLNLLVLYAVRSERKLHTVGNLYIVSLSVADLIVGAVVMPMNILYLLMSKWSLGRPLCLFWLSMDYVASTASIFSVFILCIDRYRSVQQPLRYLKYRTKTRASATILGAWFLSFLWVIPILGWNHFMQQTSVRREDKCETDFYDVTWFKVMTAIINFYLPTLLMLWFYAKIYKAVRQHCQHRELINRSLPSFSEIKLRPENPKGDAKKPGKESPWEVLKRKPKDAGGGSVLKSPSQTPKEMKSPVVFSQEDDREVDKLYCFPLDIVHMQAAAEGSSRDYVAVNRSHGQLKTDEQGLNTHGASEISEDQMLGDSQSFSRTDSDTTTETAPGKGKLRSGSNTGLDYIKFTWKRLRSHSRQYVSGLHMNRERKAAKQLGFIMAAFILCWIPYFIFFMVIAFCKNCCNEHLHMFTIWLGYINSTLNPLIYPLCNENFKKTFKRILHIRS
Chain of NET (P23975 whole entry): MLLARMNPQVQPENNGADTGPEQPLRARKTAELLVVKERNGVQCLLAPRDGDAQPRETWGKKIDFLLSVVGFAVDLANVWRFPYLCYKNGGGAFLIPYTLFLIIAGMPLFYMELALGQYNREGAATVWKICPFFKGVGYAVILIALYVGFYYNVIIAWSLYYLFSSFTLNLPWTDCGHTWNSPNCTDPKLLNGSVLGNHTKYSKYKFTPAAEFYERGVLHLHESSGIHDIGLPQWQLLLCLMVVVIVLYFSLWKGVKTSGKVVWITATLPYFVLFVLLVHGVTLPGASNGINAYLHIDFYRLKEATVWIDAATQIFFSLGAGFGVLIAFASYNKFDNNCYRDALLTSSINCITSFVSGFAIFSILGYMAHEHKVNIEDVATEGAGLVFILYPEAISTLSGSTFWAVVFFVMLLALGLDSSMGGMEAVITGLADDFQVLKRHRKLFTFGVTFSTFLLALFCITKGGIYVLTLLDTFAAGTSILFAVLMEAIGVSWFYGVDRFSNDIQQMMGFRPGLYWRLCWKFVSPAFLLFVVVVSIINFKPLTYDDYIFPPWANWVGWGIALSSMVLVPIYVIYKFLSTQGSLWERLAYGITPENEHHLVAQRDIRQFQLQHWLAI

Compound: COc1cc2c3c(c1OCc1ccc(C(F)(F)F)cc1)-c1cc4c(cc1CC3N(C)CC2)OCO4 (stereo not drawn) [Compound 8j]
- Kb [1]: 2460 nM
- Selectivity α1A/5-HT2A [1]: > 4.1
- Kb [2]: > 10000 nM

Compound: COc1cc2c3c(c1OC/C=C/c1ccccc1)-c1cc4c(cc1CC3N(C)CC2)OCO4 (stereo not drawn) [Compound 8e]
- Kb [1]: > 10000 nM
- Kb [2]: > 10000 nM

Compound: COc1cc2c3c(c1OCc1ccc(Br)cc1)-c1cc4c(cc1CC3N(C)CC2)OCO4 (stereo not drawn) [Compound 8k]
- Ki [3]: 185 nM
- inhibition in a primary assay, 5-HT1A [4]: less than 50%
- inhibition in a primary assay, 5-HT5A [5]: less than 50%
- inhibition in a primary assay, α1A [6]: less than 50%
- inhibition in a primary assay, α1B [7]: less than 50%
- inhibition in a primary assay, α1D [8]: less than 50%
- inhibition in a primary assay, β1 [9]: less than 50%
- inhibition in a primary assay, β2 [10]: less than 50%
- inhibition in a primary assay, β3 [11]: less than 50%
- inhibition in a primary assay, BZP rat brain site [12]: less than 50%
- inhibition in a primary assay, D2 [13]: less than 50%
- inhibition in a primary assay, D4 [14]: less than 50%
- inhibition in a primary assay, D5 [15]: less than 50%
- inhibition in a primary assay, DOR [16]: less than 50%
- inhibition in a primary assay, GABAA [17]: less than 50%
- inhibition in a primary assay, H1 [18]: less than 50%
- inhibition in a primary assay, H3 [19]: less than 50%
- inhibition in a primary assay, H4 [20]: less than 50%
- inhibition in a primary assay, KOR [21]: less than 50%
- inhibition in a primary assay, M1 [22]: less than 50%
- inhibition in a primary assay, M2 [23]: less than 50%
- inhibition in a primary assay, M3 [24]: less than 50%
- inhibition in a primary assay, M4 [25]: less than 50%
- inhibition in a primary assay, MOR [26]: less than 50%
- inhibition in a primary assay, NET [27]: less than 50%
- inhibition in a primary assay, SERT [28]: less than 50%
- Ki [29]: > 900 nM
- Ki [30]: 300 to 900 nM
- Ki [31]: 300 to 900 nM
- Ki [32]: 300 to 900 nM
- Ki [33]: 300 to 900 nM
- Ki [34]: 300 to 900 nM
- Kb [1]: 9.2 ± 2.6 nM
- Selectivity α1A/5-HT2A [1]: >1,086
- Kb [2]: > 10000 nM

Compound: COc1cc2c3c(c1OCC#N)-c1cc4c(cc1CC3N(C)CC2)OCO4 (stereo not drawn) [Compound 8g]
- Kb [1]: > 10000 nM
- Selectivity α1A/5-HT2A [1]: < 0.07
- Kb [2]: 711 ± 64 nM

Compound: COc1cc2c3c(c1OCc1ccc(Cl)cc1)-c1cc4c(cc1CC3N(C)CC2)OCO4 (stereo not drawn) [Compound 8i]
- Kb [1]: 6050 nM
- Selectivity α1A/5-HT2A [1]: > 1.7
- Kb [2]: > 10000 nM

Compound: C=C(C)COc1c(OC)cc2c3c1-c1cc4c(cc1CC3N(C)CC2)OCO4 (stereo not drawn) [Compound 8b]
- Kb [2]: > 10000 nM

Compound: COc1cc2c3c(c1OC)-c1cc4c(cc1CC3N(C)CC2)OCO4 (stereo not drawn) [Compound 4, nantenine, reference compound]
- Kb [2]: 36 ± 7 nM

Compound: COc1cc2c3c(c1OCCOC(C)=O)-c1cc4c(cc1CC3N(C)CC2)OCO4 (stereo not drawn) [Compound 8h]
- Kb [1]: 1910 nM
- Kb [2]: 591 ± 81 nM

Compound: C/C=C/COc1c(OC)cc2c3c1-c1cc4c(cc1CC3N(C)CC2)OCO4 (stereo not drawn) [Compound 8a]
- Kb [2]: 1980 nM

Compound: C=CCOc1c(OC)cc2c3c1-c1cc4c(cc1CC3N(C)CC2)OCO4 (stereo not drawn) [Compound 5]
- affinity for the α1A adrenergic receptor [35]: devoid of affinity
- Kb [2]: > 10000 nM

Compound: COc1cc2c3c(c1OCC=C(C)C)-c1cc4c(cc1CC3N(C)CC2)OCO4 (stereo not drawn) [Compound 8c]
- Kb [2]: > 10000 nM
